PubChem BioAssay (NCI)
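Values below derive from 48-hour exposures of cells grown in 96-well plates, with endpoints linearly interpolated between the two concentrations bracketing the appropriate inhibition level. GI50 is the concentration that inhibits growth by half. TGI: concentration producing complete growth inhibition.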

Legend:
Assay in all cases: NCI anticancer screen, dose series, 48 h
SN12C renal = system: SN12C renal
SK-MEL-5 melanoma = system: SK-MEL-5 melanoma
SK-OV-3 ovarian = system: SK-OV-3 ovarian
HCT-15 colon = system: HCT-15 colon
SF-295 CNS = system: SF-295 CNS
U251 CNS = system: U251 CNS
HL-60(TB) leukemia = system: HL-60(TB) leukemia
HT29 colon = system: HT29 colon
IGROV1 ovarian = system: IGROV1 ovarian
ACHN renal = system: ACHN renal
OVCAR-8 ovarian = system: OVCAR-8 ovarian
MALME-3M melanoma = system: MALME-3M melanoma
NCI-H226 lung = system: NCI-H226 lung
TK-10 renal = system: TK-10 renal
HOP-62 NSCLC = system: HOP-62 NSCLC
NCI/ADR-RES ovarian = system: NCI/ADR-RES ovarian
EKVX NSCLC = system: EKVX NSCLC
PC-3 prostate = system: PC-3 prostate
M14 melanoma = system: M14 melanoma
CAKI-1 renal = system: CAKI-1 renal
SNB-19 CNS = system: SNB-19 CNS
OVCAR-3 ovarian = system: OVCAR-3 ovarian
MCF7 breast = system: MCF7 breast
SK-MEL-28 melanoma = system: SK-MEL-28 melanoma
RPMI-8226 leukemia = system: RPMI-8226 leukemia
UACC-62 melanoma = system: UACC-62 melanoma
T-47D breast = system: T-47D breast
HCC-2998 colon = system: HCC-2998 colon
SW-620 colon = system: SW-620 colon
HCT-116 colon = system: HCT-116 colon
DU-145 prostate = system: DU-145 prostate
K-562 leukemia = system: K-562 leukemia
786-0 renal = system: 786-0 renal
COLO 205 colon = system: COLO 205 colon
NCI-H23 lung = system: NCI-H23 lung
SNB-75 CNS = system: SNB-75 CNS
NCI-H460 lung = system: NCI-H460 lung
OVCAR-5 ovarian = system: OVCAR-5 ovarian
SK-MEL-2 melanoma = system: SK-MEL-2 melanoma
SF-539 CNS = system: SF-539 CNS
KM12 colon = system: KM12 colon
RXF 393 renal = system: RXF 393 renal
MDA-MB-231 breast = system: MDA-MB-231 breast
MDA-MB-468 breast = system: MDA-MB-468 breast
HOP-92 NSCLC = system: HOP-92 NSCLC
BT-549 breast = system: BT-549 breast
OVCAR-4 ovarian = system: OVCAR-4 ovarian
LOX IMVI melanoma = system: LOX IMVI melanoma
UACC-257 melanoma = system: UACC-257 melanoma
SR leukemia = system: SR leukemia
NCI-H522 lung = system: NCI-H522 lung
A498 renal = system: A498 renal
HS 578T breast = system: HS 578T breast
MDA-MB-435 = system: MDA-MB-435
CCRF-CEM leukemia = system: CCRF-CEM leukemia
UO-31 renal = system: UO-31 renal
SF-268 CNS = system: SF-268 CNS
A549 NSCLC = system: A549 NSCLC

Compound `COc1ccc(-c2nc(S(=O)(=O)c3ccc(C)cc3)c(S(C)(=O)=O)o2)cc1` has a GI50 (SN12C renal) of 4.94 µM, a TGI (SN12C renal) of 17.6 µM and a GI50 (SK-MEL-5 melanoma) of 12.8 µM. For the same compound, the TGI (SK-MEL-5 melanoma) was 26.2 µM, the GI50 (SK-OV-3 ovarian) was 18.5 µM and the TGI (SK-OV-3 ovarian) was 35.1 µM. It also gave a GI50 (HCT-15 colon) of 1.96 µM, a TGI (HCT-15 colon) of 4.2 µM and a GI50 (SF-295 CNS) of 14.6 µM. It also gave a TGI (SF-295 CNS) of 27.8 µM, a GI50 (U251 CNS) of 17 µM and a TGI (U251 CNS) of 31.7 µM. It also gave a GI50 (HL-60(TB) leukemia) of 1.8 µM, a TGI (HL-60(TB) leukemia) of 6.14 µM and a GI50 (HT29 colon) of 2.09 µM. For the same compound, the TGI (HT29 colon) was 4.37 µM, the GI50 (IGROV1 ovarian) was 7.16 µM and the TGI (IGROV1 ovarian) was 20.4 µM. For the same compound, the GI50 (ACHN renal) was 1.72 µM, the TGI (ACHN renal) was 3.11 µM and the GI50 (OVCAR-8 ovarian) was 10.5 µM. It also gave a TGI (OVCAR-8 ovarian) of 27.1 µM, a GI50 (MALME-3M melanoma) of 1.45 µM and a TGI (MALME-3M melanoma) of 2.79 µM. It also gave a GI50 (NCI-H226 lung) of 16.9 µM, a TGI (NCI-H226 lung) of 38.5 µM and a GI50 (TK-10 renal) of 7.76 µM. The TGI (TK-10 renal) was 21 µM, the GI50 (HOP-62 NSCLC) was 20.2 µM and the TGI (HOP-62 NSCLC) was 40 µM. The GI50 (NCI/ADR-RES ovarian) was 12 µM, the TGI (NCI/ADR-RES ovarian) was 37.5 µM and the GI50 (EKVX NSCLC) was 11 µM. The TGI (EKVX NSCLC) was 25.4 µM, the GI50 (PC-3 prostate) was 11.1 µM and the TGI (PC-3 prostate) was 25.6 µM. It also gave a GI50 (M14 melanoma) of 1.95 µM, a TGI (M14 melanoma) of 4.59 µM and a GI50 (CAKI-1 renal) of 2.82 µM. For the same compound, the TGI (CAKI-1 renal) was 9.83 µM, the GI50 (SNB-19 CNS) was 15.1 µM and the TGI (SNB-19 CNS) was 28.3 µM. The GI50 (OVCAR-3 ovarian) was 1.83 µM, the TGI (OVCAR-3 ovarian) was 3.37 µM and the GI50 (MCF7 breast) was 2.14 µM. It also gave a TGI (MCF7 breast) of 6.1 µM, a GI50 (SK-MEL-28 melanoma) of 3.2 µM and a TGI (SK-MEL-28 melanoma) of 11 µM. For the same compound, the GI50 (RPMI-8226 leukemia) was 3.05 µM, the TGI (RPMI-8226 leukemia) was 17.3 µM and the GI50 (UACC-62 melanoma) was 7.59 µM. For the same compound, the TGI (UACC-62 melanoma) was 20.4 µM, the GI50 (T-47D breast) was 2.03 µM and the TGI (T-47D breast) was 4.55 µM. For the same compound, the GI50 (HCC-2998 colon) was 7.61 µM, the TGI (HCC-2998 colon) was 21.1 µM and the GI50 (SW-620 colon) was 1.66 µM. For the same compound, the TGI (SW-620 colon) was 3.32 µM, the GI50 (HCT-116 colon) was 1.78 µM and the TGI (HCT-116 colon) was 3.34 µM. The GI50 (DU-145 prostate) was 2.57 µM, the TGI (DU-145 prostate) was 6.82 µM and the GI50 (K-562 leukemia) was 2.91 µM. It also gave a TGI (K-562 leukemia) greater than 100 µM, a GI50 (786-0 renal) of 1.64 µM and a TGI (786-0 renal) of 3.47 µM. For the same compound, the GI50 (COLO 205 colon) was 2.21 µM, the TGI (COLO 205 colon) was 4.95 µM and the GI50 (NCI-H23 lung) was 5.57 µM. It also gave a TGI (NCI-H23 lung) of 19.1 µM, a GI50 (SNB-75 CNS) of 11.3 µM and a TGI (SNB-75 CNS) of 23.7 µM. It also gave a GI50 (NCI-H460 lung) of 10.1 µM, a TGI (NCI-H460 lung) of 24.1 µM and a GI50 (OVCAR-5 ovarian) of 10.9 µM. It also gave a TGI (OVCAR-5 ovarian) of 23.1 µM, a GI50 (SK-MEL-2 melanoma) of 14.3 µM and a TGI (SK-MEL-2 melanoma) of 27.7 µM. For the same compound, the GI50 (SF-539 CNS) was 1.83 µM, the TGI (SF-539 CNS) was 3.8 µM and the GI50 (KM12 colon) was 16.2 µM. For the same compound, the TGI (KM12 colon) was 32.2 µM, the GI50 (RXF 393 renal) was 1.47 µM and the TGI (RXF 393 renal) was 2.94 µM. It also gave a GI50 (MDA-MB-231 breast) of 1.73 µM, a TGI (MDA-MB-231 breast) of 3.35 µM and a GI50 (MDA-MB-468 breast) of 1.6 µM. For the same compound, the TGI (MDA-MB-468 breast) was 3.23 µM, the GI50 (HOP-92 NSCLC) was 3.03 µM and the TGI (HOP-92 NSCLC) was 11.6 µM. The GI50 (BT-549 breast) was 3.39 µM, the TGI (BT-549 breast) was 10 µM and the GI50 (OVCAR-4 ovarian) was 3.1 µM. For the same compound, the TGI (OVCAR-4 ovarian) was 11.1 µM, the GI50 (LOX IMVI melanoma) was 1.56 µM and the TGI (LOX IMVI melanoma) was 2.96 µM. It also gave a GI50 (UACC-257 melanoma) of 9.8 µM, a TGI (UACC-257 melanoma) of 23.1 µM and a GI50 (SR leukemia) of 2.83 µM. It also gave a TGI (SR leukemia) greater than 100 µM, a GI50 (NCI-H522 lung) of 1.66 µM and a TGI (NCI-H522 lung) of 3.28 µM. It also gave a GI50 (A498 renal) of 14.3 µM, a TGI (A498 renal) of 27.4 µM and a GI50 (HS 578T breast) of 5.35 µM. The TGI (HS 578T breast) was 34 µM, the GI50 (MDA-MB-435) was 5.3 µM and the TGI (MDA-MB-435) was 19.6 µM. The GI50 (CCRF-CEM leukemia) was 2.38 µM, the TGI (CCRF-CEM leukemia) was 6.43 µM and the GI50 (UO-31 renal) was 3.43 µM. For the same compound, the TGI (UO-31 renal) was 15.3 µM, the GI50 (SF-268 CNS) was 12.5 µM and the TGI (SF-268 CNS) was 30 µM. For the same compound, the GI50 (A549 NSCLC) was 18.9 µM and the TGI (A549 NSCLC) was 39.4 µM.
